Source: publication PMC6445163, “Design, synthesis, and evaluation of novel 2-phenylpropionic acid derivatives as dual COX inhibitory-antibacterial agents” (Journal of Enzyme Inhibition and Medicinal Chemistry, 2017)
Where two headings read alike, the source gives them in different places. Marks after values point to notes of the source that are not given here.

Tests used:
[1] = tested on: NIH/3T3 mouse embryonic fibroblast cell line; assay: MTT cytotoxicity test
Description: (§1) NIH/3T3 cells were incubated according to the supplier’s recommendations. NIH/3T3 cells were seeded at 1 × 10^4 cells into each well of 96-well plates. MTT assay was performed as previously described[51]^,[52].
(§2) There are a number of requirements to be fulfilled for successful new drug development. […] This assay is based upon the reduction of yellow MTT dye by metabolically active eukaryotic and prokaryotic cells to form the purple formazan product. The assay is generally used to examine cell viability and to estimate cell culture growth[66]^,[67].

MTT cytotoxicity test = settings: mouse, NIH/3T3 mouse embryonic fibroblast cells
Description: as §1, §2

COX-2 = target: T1, COX-2 (Homo sapiens, UniProt P35354); assay: fluorometric COX-2 inhibitor screening kit assay; type: biochemical; settings: 25 °C
T1 construct: purchased Biovision K547-100
T1 sequence (P35354 18-604): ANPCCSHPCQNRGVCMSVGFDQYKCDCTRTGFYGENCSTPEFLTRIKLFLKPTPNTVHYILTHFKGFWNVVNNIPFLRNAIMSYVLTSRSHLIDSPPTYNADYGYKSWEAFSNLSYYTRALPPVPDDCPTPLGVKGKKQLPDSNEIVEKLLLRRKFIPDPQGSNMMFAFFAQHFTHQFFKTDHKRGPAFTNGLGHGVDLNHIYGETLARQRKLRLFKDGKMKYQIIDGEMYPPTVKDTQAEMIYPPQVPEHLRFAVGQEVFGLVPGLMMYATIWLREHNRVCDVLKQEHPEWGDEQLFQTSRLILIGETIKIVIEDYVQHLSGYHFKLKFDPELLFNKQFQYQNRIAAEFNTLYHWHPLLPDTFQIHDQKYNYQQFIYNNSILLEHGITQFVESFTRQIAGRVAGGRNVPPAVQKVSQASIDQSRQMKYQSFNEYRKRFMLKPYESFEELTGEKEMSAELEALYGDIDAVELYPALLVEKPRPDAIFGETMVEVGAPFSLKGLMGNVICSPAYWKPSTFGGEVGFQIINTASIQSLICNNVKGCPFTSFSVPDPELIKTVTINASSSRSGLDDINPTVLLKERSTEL
Description: Inhibitory potency of the compounds against COX-1 and COX-2 enzymes was determined using fluorometric COX-1 and COX-2 inhibitor screening kits (Biovision, Zurich, Switzerland). Experimental protocol was followed as described in the guides of the supplier[47]^,[48]. All of the pipettings in the assay were performed by Biotek Precision robotic system (BioTek Instruments, Inc., Winooski, VT). […] Appropriate two points (T1 and T2) in the linear range of the plot were chosen, and the corresponding fluorescence values (RFU1 and RFU2) were obtained. The slope for all samples, including enzyme control (EC), by dividing the net ΔRFU (RFU2–RFU1) values by the time ΔT (T2–T1) were calculated by using following equation: % Relative inhibition=(Slope of EC-Slope of S/Slope of EC)×100
This initial in vitro assay was done with two concentrations (10^−3 and 10^−4 M) for all compounds. […] The IC50 value was calculated from the plots of enzyme activity against concentrations by applying regression analyses on GraphPad Prism Version 5 (GraphPad Software, La Jolla, CA).
Selectivity indexes (SI) were expressed as IC50 (COX-1)/IC50 (COX-2). Selectivity toward COX-2 decreases as the corresponding SI decreases while selectivity toward COX-1 isoform increases as the corresponding SI decreases.

[2] = tested on: Salmonella typhimurium TA98 (frameshift mutations); type: cell-based; settings: for mutagenicity classification against TA98: presence/absence of metabolic activation (S9)
Description: (§3) Salmonella typhimurium strains, TA98 (frameshift mutations) and TA100 (base-pair substitutions), are used in this assay. Concentration range of the compounds was between […] and 5000 µg/mL according to the previous guidelines. Compounds were prepared in six different concentrations (5, 2.5, 1.25, 0.625, 0.3125 and 0.156 mg/mL) in DMSO. Mutagenic potential was determined in absence and presence of Aroclor™-1254 induced male Sprague–Dawley rat liver microsomal enzyme (S9) mix (Xenometrix AG, Switzerland). Positive controls without S9 mix were 2-Nitrofluorene (2 µg/mL) and 4-nitroquinoline N-oxide (0.1 µg/mL) whereas 1 and 2.5 µg/mL of 2-aminoanthracene solutions were used as positive controls with S9 against TA 98 and TA100, respectively. Solvent control was prepared with 4% DMSO. At the end of the experiment, revertant bacteria dropped the pH of solution and indicator medium color was changed to yellow. Yellow wells were counted as positive and compared with the negative control. Fold induction over the negative control and fold induction over the baseline were calculated. Fold induction over the negative control is the ratio of the mean number of positive wells for the dose concentration divided by the mean number of positive wells for the zero dose (negative) control. Fold induction over the baseline is the ratio of the mean number of positive wells for the dose concentration divided by zero dose baseline. The zero dose baseline is obtained by adding one standard deviation to the mean number of positive wells of the zero dose control. Mutagenicity was determined according to the criteria from previous studies[52]^,[56]. For a value ≤3 and significant increases between two and three-fold the baselines were classified as a weak mutagen, and increases ≥ three-fold the baselines were classified as a mutagen. […] As a rule, at least two adjacent doses with significant increases or a significant increase at the highest dose level should be observed for a mutagenic compound. All doses were compared according to Student’s t-test at p < .05 for statistical significance.
(§4) Ames assay was performed to investigate the genotoxicity of compounds 6h and 6l.

[3] = tested on: TA100 (base-pair substitutions); assay: Ames MPF mutagenicity assay, TA100; type: cell-based, Salmonella typhimurium; settings: Salmonella typhimurium; each concentration, with and without S9; read-out: Fold inductions over baseline, TA 100
Description: as §3, §4

Structure (SMILES) | melting point | fold by which IC50 against COX enzymes is lower than IC50 against NIH/3T3 cells [1] | IC50 (MTT cytotoxicity test) | IC50 (COX-2) | Revertants fold increase (over baseline) TA 98 S9− ([2]; 0.156 mg/mL) | Revertants fold increase (over baseline) TA 98 S9+ ([2]; 0.3125 mg/mL) | Revertants fold increase (over baseline) TA 98 S9− ([2]; 0.3125 mg/mL) | Revertants fold increase (over baseline) TA 98 S9+ ([2]; 0.625 mg/mL) | Revertants fold increase (over baseline) TA 98 S9− ([2]; 0.625 mg/mL) | Revertants fold increase (over baseline) TA 98 S9+ ([2]; 1.25 mg/mL) | Revertants fold increase (over baseline) TA 98 S9− ([2]; 1.25 mg/mL) | Revertants fold increase (over baseline) TA 98 S9+ ([2]; 2.5 mg/mL) | Revertants fold increase (over baseline) TA 98 S9− ([2]; 2.5 mg/mL) | Revertants fold increase (over baseline) TA 98 S9+ ([2]; 5 mg/mL) | Revertants fold increase (over baseline) TA 98 S9− ([2]; 5 mg/mL) | mutagenicity classification against TA98 [2] | fold induction [3] | Revertants fold increase (over baseline) TA 98 S9+ ([2]; 0.156 mg/mL)
COc1ccc2sc(SCc3ccc(C(C)C(=O)O)cc3)nc2c1 (stereo not shown) [Compound 6h, 2-(4-(((5-Methoxybenzo[d]thiazol-2-yl)thio)methyl)phenyl)propanoic acid] | 166.5 to 168.2 °C | about 500 fold | ≥ 1000 µM | 2.96 µM | 0.56 | 0.52 | 0.56 | 0.70 | 0.60 | 0.17 | 0.73 | 1.05 | 0.22^a | 0.87 | 0.17^a | non-mutagenic | – | –
COc1ccc2[nH]c(SCc3ccc(C(C)C(=O)O)cc3)nc2c1 (stereo not shown) [Compound 6l, 2-(4-(((5-Methoxy-1H-benzo[d]imidazol-2-yl)thio)methyl)phenyl)propanoic acid] | 175.6 to 178.4 °C | about 500 fold | ≥ 1000 µM | 2.34 µM | 0.57 | 0.50 | 0.31^a | 0.75 | 0.61 | 0.08^a | 0.04a | 0.00^a | 0.00^a | 0.00^a | 0.04^a | non-mutagenic | < 1.5 | 0.17^a
